# Reference: article PMC8952364, “Polyphenols as Inhibitors of Antibiotic Resistant Bacteria—Mechanisms Underlying Rutin Interference with Bacterial Virulence” (Pharmaceuticals, 2022)
# Like-named read-outs stand apart in the source and are kept apart here.
# Experiments:
# S. infantis 1371/1 = assay: Antimicrobial microdilution assay (MIC/MBC); type: cell-based, Salmonella Infantis; settings: for MIC: 37 °C, 24 h; for MBC: subcultivation, 24 h at 37 °C
# Description: (§1) The bacterial suspension (0.5 Mc Farland) was prepared, and twenty-fold dilutions of these suspensions were mixed in a 1:10 ratio with the corresponding polyphenol dilution (0.0039–1 mg/mL). Microtiter plates were incubated at 37 °C for 24 h. The lowest concentrations without visible growth (under a binocular microscope) were defined as MICs. The bactericidal concentrations (MBCs) were determined by serial subcultivation of 2 μL of the well’s content and further incubation for 24 h at 37 °C. Streptomycin (SigmaAldrich, Darmstadt, Germany) was used as a positive control. The polyphenols were obtained from Extrasynthese, Rhone, France (rutin, isoquercitrin) and SigmaAldrich, Germany (hesperetin, hesperidin, naringenin, naringin, taxifolin, morin, chlorogenic acid, ferulic acid, p-coumaric acid, and gallic acid). The stock compounds were prepared in ethanol (30%), and adequate ethanol concentrations were used as the negative control in the assays. Experiments were done in triplicate.
# [1] = system: Methicillin resistant S. aureus IBRS MRSA 011; assay: Antimicrobial microdilution assay (MIC/MBC); type: cell-based, Staphylococcus aureus; settings: for MIC: 37 °C, 24 h; for MBC: subcultivation, 24 h at 37 °C
# Description: as §1
# E. coli CECT434 = system: E. coli CECT434; design: method as in PMID 22823343; settings: cited from earlier work
# A. baumannii 6077/12 = assay: Antimicrobial microdilution assay (MIC/MBC); type: cell-based, Acinetobacter baumannii; settings: for MIC: 37 °C, 24 h; for MBC: subcultivation, 24 h at 37 °C
# Description: as §1
# A. baumannii S2/2 = assay: Antimicrobial microdilution assay (MIC/MBC); type: cell-based, Acinetobacter baumannii; settings: for MIC: 37 °C, 24 h; for MBC: subcultivation, 24 h at 37 °C
# Description: as §1
# P. aeruginosa ATCC 10145 = system: P. aeruginosa ATCC 10145; design: method as in PMID 22823343; settings: cited from earlier work
# [2] = system: P. aeruginosa IBRS P001 biofilm; assay: Crystal violet antibiofilm assay (biofilm formation); type: cell-based, Pseudomonas aeruginosa; settings: 24 h
# Description: After incubation, each well was washed twice with sterile PBS (phosphate-buffered saline, pH 7.4) and fixed with methanol for 10 min. After removal of methanol the plate was air-dried. The biofilm was stained with 0.1% crystal violet (Bio-Merieux, Marcy l’Etoile, France) for 30 min. The plate was washed with water, air dried, and the stain was dissolved with 200 μL of 96% ethanol (Zorka, Sabac, Serbia). The absorbance was read at 620 nm on a Multiskan™ FC microplate photometer (Thermo Scientific™, Waltham, MA, USA). The results are presented as biofilm forming capacity (%) compared to control.
# HaCaT cells [3] = assay: Cytotoxicity in HaCaT cell line (crystal violet assay); type: cell-based, human; settings: HaCaT, 24 h treatment, crystal violet
# Description: For determination of the polyphenols’ cytotoxic effect, a crystal violet assay was used, with modifications. The cytotoxic effect of polyphenols was analyzed on spontaneously immortalized human skin keratinocytes (HaCaT, AddexBio No. T0020001, San Diego, CA, USA) cell lines. […] Cells (1 × 10^4 cells/well) were seeded in a 96-well plate (Sarstedt, Nümbrecht, Germany) 24 h before treatment. […] Cells were incubated with the compounds for 24 h. […] After crystal violet was removed, the plates were washed in a stream of tap water and left to air-dry at room temperature for 24 h. The absorbance was measured in a microplate reader (Multiskan™ FC Microplate Photometer, Thermo Scientific™) at 590 nm. The results were expressed as IC50 value in μg/mL. The criterion used to categorize the cytotoxic activity polyphenols was as follows: […] All analyses were performed in triplicate; each replicate was also quantified three times. Data were expressed as mean standard deviation, where applicable.
# K. pneumoniae Ni9 = assay: Antimicrobial microdilution assay (MIC/MBC); type: cell-based, Klebsiella pneumoniae; settings: for MIC: 37 °C, 24 h; for MBC: subcultivation, 24 h at 37 °C
# Description: as §1
# K. pneumoniae IT977 = assay: Antimicrobial microdilution assay (MIC/MBC); type: cell-based, Klebsiella pneumoniae; settings: for MIC: 37 °C, 24 h; for MBC: subcultivation, 24 h at 37 °C
# Description: as §1
# A. xylosoxidans 37F = assay: Antimicrobial microdilution assay (MIC/MBC); type: cell-based, Achromobacter xylosoxidans; settings: for MIC: 37 °C, 24 h; for MBC: subcultivation, 24 h at 37 °C
# Description: as §1
# [4] = system: eleven antibiotic resistant strains of bacteria; assay: Antimicrobial assay, summary over the examined strains; type: cell-based; settings: antibiotic resistant strains of Table 1
# Description: as §1
# P. aeruginosa IBRS P001 = assay: Antimicrobial microdilution assay (MIC/MBC); type: cell-based, Pseudomonas aeruginosa; settings: for MIC: 37 °C, 24 h; for MBC: subcultivation, 24 h at 37 °C
# Description: as §1
# P. aeruginosa MMA83 = assay: Antimicrobial microdilution assay (MIC/MBC); type: cell-based, Pseudomonas aeruginosa; settings: for MIC: 37 °C, 24 h; for MBC: subcultivation, 24 h at 37 °C
# Description: as §1
# S. aureus CECT 976 = system: S. aureus CECT 976; design: method as in PMID 22823343; settings: cited from earlier work
# E. coli IBRS E003 = assay: Antimicrobial microdilution assay (MIC/MBC); type: cell-based, Escherichia coli; settings: for MIC: 37 °C, 24 h; for MBC: subcultivation, 24 h at 37 °C
# Description: as §1
# E. coli IMD989 = assay: Antimicrobial microdilution assay (MIC/MBC); type: cell-based, Escherichia coli; settings: for MIC: 37 °C, 24 h; for MBC: subcultivation, 24 h at 37 °C
# Description: as §1
# [5] = system: P. aeruginosa ATCC 10145 biofilms; design: method as in PMID 22823343; settings: 1000 µg/mL; cited from earlier work
# E. coli ATCC 25922 = system: E. coli ATCC 25922; design: method as in PMID 29327068; settings: cited from earlier work
# HaCaT cells [6] = system: HaCaT cells; design: method as in PMID 28962387; settings: previous assessment; cited from earlier work
structure (smiles),measurement,setting,value
"COc1cc(/C=C/C(=O)O)ccc1O [Ferulic acid, ferulic acid]",MIC,S. infantis 1371/1,1000 µg/mL
same,MBC,S. infantis 1371/1,1000 µg/mL
same,MIC,[1],500 µg/mL
same,MBC,[1],1000 µg/mL
same,MIC,E. coli CECT434,100 µg/mL
same,MIC,A. baumannii 6077/12,500 µg/mL
same,MBC,A. baumannii 6077/12,500 µg/mL
same,MIC,A. baumannii S2/2,500 µg/mL
same,MBC,A. baumannii S2/2,500 µg/mL
same,MIC,P. aeruginosa ATCC 10145,100 µg/mL
same,biofilm inhibition,[2]; 500 µg/mL (MIC),even higher inhibition
same,"reduction of biofilm formation (biomass), in words","[2]; MIC and sub-MIC, crystal violet, Figure 1","significant (****, p < 0.0001) reduction"
same,IC50 (compound concentration that inhibited 50% of the cell growth),HaCaT cells [3],>1000 µg/mL
same,MIC,K. pneumoniae Ni9,1000 µg/mL
same,MBC,K. pneumoniae Ni9,1000 µg/mL
same,MIC,K. pneumoniae IT977,1000 µg/mL
same,MBC,K. pneumoniae IT977,1000 µg/mL
same,MIC,A. xylosoxidans 37F,1000 µg/mL
same,MBC,A. xylosoxidans 37F,1000 µg/mL
same,lowest MIC among the examined strains,[4],500 µg/mL
same,MIC,P. aeruginosa IBRS P001,500 µg/mL
same,MBC,P. aeruginosa IBRS P001,1000 µg/mL
same,MIC,P. aeruginosa MMA83,1000 µg/mL
same,MBC,P. aeruginosa MMA83,1000 µg/mL
same,MIC,S. aureus CECT 976,1100 µg/mL
same,MIC,E. coli IBRS E003,>1000 µg/mL
same,MBC,E. coli IBRS E003,>1000 µg/mL
same,MIC,E. coli IMD989,1000 µg/mL
same,MBC,E. coli IMD989,1000 µg/mL
same,reduction of biofilms,[5],more than 70%
"O=C(O)c1cc(O)c(O)c(O)c1 [Gallic Acid, gallic acid]",MIC,"S. infantis 1371/1; Salmonella enterica, 1371/1, read-out: MIC",> 1000 µg/mL
same,MBC,"S. infantis 1371/1; Salmonella enterica, 1371/1, read-out: MBC",> 1000 µg/mL
same,MIC,"[1]; Staphylococcus aureus, MRSA, read-out: MIC",> 1000 µg/mL
same,MBC,"[1]; Staphylococcus aureus, MRSA, read-out: MBC",> 1000 µg/mL
same,MIC,E. coli ATCC 25922,500 µg/mL
same,IC50 towards HaCaT cells,HaCaT cells [6],84.2 µg/mL
same,MIC,"A. baumannii 6077/12; Acinetobacter baumannii, 6077/12, read-out: MIC",500 µg/mL
same,MBC,"A. baumannii 6077/12; Acinetobacter baumannii, 6077/12, read-out: MBC",1000 µg/mL
same,MIC,"A. baumannii S2/2; Acinetobacter baumannii, S2/2, read-out: MIC",500 µg/mL
same,MBC,"A. baumannii S2/2; Acinetobacter baumannii, S2/2, read-out: MBC",500 µg/mL
same,IC50,"HaCaT cells [3]; Homo sapiens, read-out: IC50 (compound concentration that inhibited 50% of the cell growth)",< 80 µg/mL
same,MIC,"K. pneumoniae Ni9; Klebsiella pneumoniae, NI9, read-out: MIC",1000 µg/mL
same,MBC,"K. pneumoniae Ni9; Klebsiella pneumoniae, NI9, read-out: MBC",1000 µg/mL
same,MIC,"K. pneumoniae IT977; Klebsiella pneumoniae, IT977, read-out: MIC",1000 µg/mL
same,MBC,"K. pneumoniae IT977; Klebsiella pneumoniae, IT977, read-out: MBC",1000 µg/mL
same,MIC,"A. xylosoxidans 37F; Achromobacter xylosoxidans, 37F, read-out: MIC",500 µg/mL
same,MBC,"A. xylosoxidans 37F; Achromobacter xylosoxidans, 37F, read-out: MBC",1000 µg/mL
same,MIC,"P. aeruginosa IBRS P001; Pseudomonas aeruginosa, IBRSP001, read-out: MIC",> 1000 µg/mL
same,MBC,"P. aeruginosa IBRS P001; Pseudomonas aeruginosa, IBRSP001, read-out: MBC",> 1000 µg/mL
same,MIC,"P. aeruginosa MMA83; Pseudomonas aeruginosa, MMA83, read-out: MIC",1000 µg/mL
same,MBC,"P. aeruginosa MMA83; Pseudomonas aeruginosa, MMA83, read-out: MBC",1000 µg/mL
same,MIC,E. coli IBRS E003,>1000 µg/mL
same,MIC,"E. coli IBRS E003; Escherichia coli, IBRSE003, read-out: MIC",> 1000 µg/mL
same,MBC,"E. coli IBRS E003; Escherichia coli, IBRSE003, read-out: MBC",> 1000 µg/mL
same,MIC,E. coli IMD989,>1000 µg/mL
same,MIC,"E. coli IMD989; Escherichia coli, IMD989, read-out: MIC",> 1000 µg/mL
same,MBC,"E. coli IMD989; Escherichia coli, IMD989, read-out: MBC",> 1000 µg/mL
